Assay results taken from publication PMC8523698, “Preclinical characterization of an intravenous coronavirus 3CL protease inhibitor for the potential treatment of COVID19” (Nature Communications, 2021).
“And” between values parts separate entries of the source, which are not always exact repeats. Equal values may be shown once.

Key:
[1] = in vitro; settings: African green monkey, CC50
[2] = test system: CYP3A4/5; experiment: in vitro; settings: human, microsomes, pH 7.4, Percent of Control Activity, CYP 3A4/5 (mdz)
[3] = target: MDR1/P-gp (Homo sapiens, UniProt P08183); experiment: Transporter inhibition using membrane vesicles; settings: for % PGP Uptake Activity: uptake of N-methyl quinidine by MDR1, single replicates
[4] = target: BCRP (Homo sapiens, UniProt Q9UNQ0); experiment: Transporter inhibition using membrane vesicles; settings: IC50, Rosuvastatin (0.2 µM)
[5] = target: T1, OATP1B1 (Homo sapiens, UniProt Q9Y6L6); experiment: Transporter inhibition using transfected HEK293 cells; settings: IC50, Rosuvastatin (0.5 µM)
T1 sequence (Q9Y6L6 1-691): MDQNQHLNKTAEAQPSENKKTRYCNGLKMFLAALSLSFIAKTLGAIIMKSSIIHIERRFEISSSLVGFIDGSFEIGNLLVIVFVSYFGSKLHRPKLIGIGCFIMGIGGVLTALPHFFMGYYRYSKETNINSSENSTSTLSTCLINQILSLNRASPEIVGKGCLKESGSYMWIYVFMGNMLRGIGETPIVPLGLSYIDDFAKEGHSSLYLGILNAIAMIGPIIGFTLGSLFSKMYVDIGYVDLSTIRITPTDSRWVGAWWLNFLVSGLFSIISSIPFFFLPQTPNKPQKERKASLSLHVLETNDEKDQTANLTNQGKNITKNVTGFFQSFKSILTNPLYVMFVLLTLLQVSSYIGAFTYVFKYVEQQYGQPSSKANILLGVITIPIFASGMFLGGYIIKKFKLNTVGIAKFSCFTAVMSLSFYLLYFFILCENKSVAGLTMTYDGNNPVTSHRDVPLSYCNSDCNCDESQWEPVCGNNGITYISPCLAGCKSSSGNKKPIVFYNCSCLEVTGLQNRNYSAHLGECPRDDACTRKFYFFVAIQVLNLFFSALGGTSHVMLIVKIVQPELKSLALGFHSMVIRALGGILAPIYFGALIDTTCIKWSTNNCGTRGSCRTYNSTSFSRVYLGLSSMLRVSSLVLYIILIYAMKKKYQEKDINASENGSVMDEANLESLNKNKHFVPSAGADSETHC

[6] = target: T2, OATP1B3 (Homo sapiens, UniProt Q9NPD5); experiment: as above; settings: IC50, Rosuvastatin (0.5 µM)
T2 sequence (Q9NPD5 1-702): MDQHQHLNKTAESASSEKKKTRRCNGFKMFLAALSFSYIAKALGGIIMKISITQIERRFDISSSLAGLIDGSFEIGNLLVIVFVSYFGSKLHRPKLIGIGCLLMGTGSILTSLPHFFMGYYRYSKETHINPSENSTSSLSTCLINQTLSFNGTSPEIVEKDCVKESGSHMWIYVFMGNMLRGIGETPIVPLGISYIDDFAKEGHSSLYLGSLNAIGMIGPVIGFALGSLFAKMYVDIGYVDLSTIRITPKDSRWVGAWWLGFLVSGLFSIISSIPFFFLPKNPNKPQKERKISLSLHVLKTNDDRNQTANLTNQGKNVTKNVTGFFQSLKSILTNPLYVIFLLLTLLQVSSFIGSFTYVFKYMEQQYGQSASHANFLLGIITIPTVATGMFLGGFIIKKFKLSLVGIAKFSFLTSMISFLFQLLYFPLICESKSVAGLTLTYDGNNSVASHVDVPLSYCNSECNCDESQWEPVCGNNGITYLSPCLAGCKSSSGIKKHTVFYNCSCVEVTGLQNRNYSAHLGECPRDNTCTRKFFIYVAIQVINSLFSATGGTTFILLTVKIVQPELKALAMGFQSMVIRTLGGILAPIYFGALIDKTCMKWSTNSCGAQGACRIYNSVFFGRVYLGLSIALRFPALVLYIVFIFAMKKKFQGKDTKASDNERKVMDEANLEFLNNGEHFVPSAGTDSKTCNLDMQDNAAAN

[7] = target: T3, MATE1 (Homo sapiens, UniProt Q96FL8); experiment: as above; settings: IC50, [14C]Metformin (20 µM)
T3 sequence (Q96FL8 1-570): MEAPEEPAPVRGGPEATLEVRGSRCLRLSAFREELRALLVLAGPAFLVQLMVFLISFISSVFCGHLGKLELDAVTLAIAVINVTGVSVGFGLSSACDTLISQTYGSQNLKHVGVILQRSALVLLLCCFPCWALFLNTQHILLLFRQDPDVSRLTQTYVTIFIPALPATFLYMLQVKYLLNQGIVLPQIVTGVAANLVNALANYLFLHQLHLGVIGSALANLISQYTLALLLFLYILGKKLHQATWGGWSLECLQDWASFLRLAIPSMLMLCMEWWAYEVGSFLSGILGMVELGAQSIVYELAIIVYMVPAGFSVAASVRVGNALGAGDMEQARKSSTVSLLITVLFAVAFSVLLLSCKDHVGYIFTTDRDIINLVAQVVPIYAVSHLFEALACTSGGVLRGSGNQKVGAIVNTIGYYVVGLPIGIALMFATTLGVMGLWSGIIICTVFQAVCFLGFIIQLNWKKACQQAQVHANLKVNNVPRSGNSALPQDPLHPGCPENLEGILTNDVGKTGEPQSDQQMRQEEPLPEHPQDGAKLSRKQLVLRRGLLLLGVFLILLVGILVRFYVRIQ

Chain of MDR1/P-gp (P08183 whole entry): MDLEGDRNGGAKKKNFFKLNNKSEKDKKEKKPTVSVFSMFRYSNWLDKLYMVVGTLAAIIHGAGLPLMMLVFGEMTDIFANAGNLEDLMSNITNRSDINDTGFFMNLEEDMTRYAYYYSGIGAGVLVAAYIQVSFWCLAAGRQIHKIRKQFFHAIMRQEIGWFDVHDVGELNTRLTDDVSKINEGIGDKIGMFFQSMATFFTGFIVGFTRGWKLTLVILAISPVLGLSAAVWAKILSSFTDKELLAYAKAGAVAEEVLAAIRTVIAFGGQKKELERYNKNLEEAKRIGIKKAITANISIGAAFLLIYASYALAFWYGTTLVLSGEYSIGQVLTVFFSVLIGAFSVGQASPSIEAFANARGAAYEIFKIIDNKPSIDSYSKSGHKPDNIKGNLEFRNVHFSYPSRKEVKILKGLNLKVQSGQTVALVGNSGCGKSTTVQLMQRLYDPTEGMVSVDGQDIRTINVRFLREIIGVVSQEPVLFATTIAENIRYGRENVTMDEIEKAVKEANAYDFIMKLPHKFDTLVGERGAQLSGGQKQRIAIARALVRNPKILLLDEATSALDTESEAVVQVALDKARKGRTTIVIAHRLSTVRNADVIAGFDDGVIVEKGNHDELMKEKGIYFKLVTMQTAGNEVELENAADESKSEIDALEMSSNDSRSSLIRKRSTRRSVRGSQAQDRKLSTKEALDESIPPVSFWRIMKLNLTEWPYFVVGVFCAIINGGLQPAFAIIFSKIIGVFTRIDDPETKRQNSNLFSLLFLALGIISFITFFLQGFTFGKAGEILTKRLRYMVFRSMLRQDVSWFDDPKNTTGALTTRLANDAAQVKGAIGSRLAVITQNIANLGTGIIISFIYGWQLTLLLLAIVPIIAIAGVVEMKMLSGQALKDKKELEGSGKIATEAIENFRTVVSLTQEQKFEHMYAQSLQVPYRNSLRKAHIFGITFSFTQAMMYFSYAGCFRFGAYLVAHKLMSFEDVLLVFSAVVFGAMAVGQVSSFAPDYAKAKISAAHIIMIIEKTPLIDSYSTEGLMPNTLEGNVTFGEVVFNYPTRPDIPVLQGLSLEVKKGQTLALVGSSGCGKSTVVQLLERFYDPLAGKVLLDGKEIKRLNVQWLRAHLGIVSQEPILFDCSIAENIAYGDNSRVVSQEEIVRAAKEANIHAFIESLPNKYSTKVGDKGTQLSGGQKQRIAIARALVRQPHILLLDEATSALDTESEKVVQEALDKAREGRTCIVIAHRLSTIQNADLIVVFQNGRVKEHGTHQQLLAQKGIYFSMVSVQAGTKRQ
Chain of BCRP (Q9UNQ0 whole entry): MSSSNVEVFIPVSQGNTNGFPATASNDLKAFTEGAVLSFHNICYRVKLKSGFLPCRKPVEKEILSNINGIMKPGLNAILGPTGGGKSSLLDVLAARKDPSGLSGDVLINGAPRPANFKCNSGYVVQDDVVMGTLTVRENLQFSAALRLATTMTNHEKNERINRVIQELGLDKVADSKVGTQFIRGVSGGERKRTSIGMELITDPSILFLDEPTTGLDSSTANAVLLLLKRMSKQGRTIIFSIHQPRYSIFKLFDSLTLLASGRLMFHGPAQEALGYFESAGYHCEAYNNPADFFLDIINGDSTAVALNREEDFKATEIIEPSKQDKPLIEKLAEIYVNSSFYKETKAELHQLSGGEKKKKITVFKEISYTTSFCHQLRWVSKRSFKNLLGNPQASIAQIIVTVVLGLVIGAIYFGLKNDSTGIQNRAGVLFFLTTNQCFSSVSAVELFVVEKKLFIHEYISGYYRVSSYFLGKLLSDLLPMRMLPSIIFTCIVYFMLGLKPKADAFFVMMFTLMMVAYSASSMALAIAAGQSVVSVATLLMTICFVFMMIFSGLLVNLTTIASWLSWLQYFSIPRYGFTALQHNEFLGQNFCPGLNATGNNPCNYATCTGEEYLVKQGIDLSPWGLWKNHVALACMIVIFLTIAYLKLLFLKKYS

Q: With COc1cccc2[nH]c(C(=O)N[C@@H](CC(C)C)C(=O)N[C@@H](C[C@@H]3CCNC3=O)C(=O)COP(=O)(O)O)cc12 [PF-07304814] as the compound, how does the CC50 [1] read?
A: > 100 µM

Q: What about the activity at 0.01 µM ([2]; 30-Minute Preincubation) of the same compound?
A: 99.4%

Q: And the activity at 0.01 µM ([2]; Zero-Minute Preincubation)?
A: 102%

Q: And the activity at 0.158 µM ([2]; 30-Minute Preincubation)?
A: 102%

Q: And the activity at 0.158 µM ([2]; Zero-Minute Preincubation)?
A: 99.1%

Q: What about the activity at 0.398 µM ([2]; 30-Minute Preincubation) of the same compound?
A: 101%

Q: What about the activity at 0.398 µM ([2]; Zero-Minute Preincubation) of the same compound?
A: 99.3%

Q: What about the activity at 1 µM ([2]; 30-Minute Preincubation) of the same compound?
A: 99.2%

Q: And the activity at 1 µM ([2]; Zero-Minute Preincubation)?
A: 100%

Q: What about the activity at 15.8 µM ([2]; 30-Minute Preincubation) of the same compound?
A: 97.5%

Q: And the activity at 15.8 µM ([2]; Zero-Minute Preincubation)?
A: 102%

Q: And the activity at 39.8 µM ([2]; 30-Minute Preincubation)?
A: 97%

Q: What about the activity at 39.8 µM ([2]; Zero-Minute Preincubation) of the same compound?
A: 100%

Q: And the activity at 100 µM ([2]; 30-Minute Preincubation)?
A: 99.2%

Q: What about the activity at 100 µM ([2]; Zero-Minute Preincubation) of the same compound?
A: 101%

Q: What about the IC50 ([3]; IC50, N-methyl quinidine (0.2 µM)) of the same compound?
A: > 300 µM

Q: And the “% PGP Uptake Activity” value ([3]; inhibitor concentration 0.0732 uM)?
A: 123.862% and 96.8629% and 149.319%

Q: And the “% PGP Uptake Activity” value ([3]; inhibitor concentration 0.2930 uM)?
A: 106.737% and 95.0116% and 107.663%

Q: What about the “% PGP Uptake Activity” value ([3]; inhibitor concentration 1.1719 uM) of the same compound?
A: 108.588% and 115.068% and 109.514%

Q: What about the “% PGP Uptake Activity” value ([3]; inhibitor concentration 4.6875 uM) of the same compound?
A: 120.159% and 118.308% and 119.234%

Q: What about the “% PGP Uptake Activity” value ([3]; inhibitor concentration 18.7500 uM) of the same compound?
A: 122.011% and 113.68% and 118.308%

Q: What about the “% PGP Uptake Activity” value ([3]; inhibitor concentration 300.0000 uM) of the same compound?
A: 73.875% and 64.7724% and 99.64%

Q: And the IC50 [4]?
A: 238 µM and > 130 µM

Q: And the IC50 [5]?
A: 134 µM and > 130 µM

Q: What about the IC50 [6] of the same compound?
A: 202 µM and > 130 µM

Q: What about the IC50 [7] of the same compound?
A: > 300 µM
